# Measurements: BindingDB's records for patent US12459916 (Bayer Pharma Aktiengesellschaft, 2025)
# Target: T1, Interleukin-1 receptor-associated kinase 4 (UniProt A0A8C0TG75)
# T1 sequence (A0A8C0TG75 whole entry): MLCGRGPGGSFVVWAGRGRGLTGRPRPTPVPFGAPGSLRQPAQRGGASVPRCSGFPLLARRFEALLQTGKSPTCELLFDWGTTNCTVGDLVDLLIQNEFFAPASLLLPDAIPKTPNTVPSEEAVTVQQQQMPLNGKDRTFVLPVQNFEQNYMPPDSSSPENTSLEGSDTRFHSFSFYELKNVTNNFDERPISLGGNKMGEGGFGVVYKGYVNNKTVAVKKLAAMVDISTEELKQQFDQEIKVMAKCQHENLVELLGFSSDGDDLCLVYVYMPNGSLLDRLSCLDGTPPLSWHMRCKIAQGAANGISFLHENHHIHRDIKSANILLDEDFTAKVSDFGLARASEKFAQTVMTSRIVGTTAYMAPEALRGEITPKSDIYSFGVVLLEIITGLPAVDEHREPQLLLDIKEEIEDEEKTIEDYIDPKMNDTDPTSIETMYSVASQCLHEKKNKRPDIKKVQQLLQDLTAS
# Test: Canine IRAK4 Kinase Assay
# Procedure: 50 nl of the respective solution were pipetted into a black low-volume 384-well microtitre plate (Greiner Bio-One, Frickenhausen, Germany), 2 μl of a solution of Irak4 in assay buffer [50 mM HEPES pH 7.5, 5 mM MgCl2, 1.0 mM dithiothreitol, 30 μM activated sodium orthovanadate, 0.1% (w/v) of bovine gamma-globulin (BGG) 0.04% (v/v) nonidet-P40 (Sigma)] were added and the mixture was incubated for 15 min to allow prebinding of the substances to the enzyme prior to the kinase reaction. […] The concentration of the Irak4 was adjusted to the respective activity of the enzyme and set such that the assay was carried out in the linear range. Typical concentrations were in the order of about 0.1 nM.
row,Compound,IC50
1,"CC(C)(O)CCn1cc2cc(NC(=O)c3cccc(C(F)F)n3)c(C(C)(C)O)cc2n1 [US12459916, Example 13]",1.75 nM
2,"Cc1nc(C(=O)Nc2cc3cn(CCC(C)(C)O)nc3cc2C(C)(C)O)ccc1F [US12459916, Example 19]",8.46 nM
